Experimental data reported in ChEMBL document CHEMBL4507283, “Data for DCP probe BI-1935” (2021).
Active and inactive are the calls of the source. No cut-off for these calls is given here.

Legend:
[1] = target: T1, Bifunctional epoxide hydrolase 2 (Homo sapiens, UniProt P34913); experiment: Human soluble epoxide hydrolase inhibition
T1 sequence (P34913 whole entry): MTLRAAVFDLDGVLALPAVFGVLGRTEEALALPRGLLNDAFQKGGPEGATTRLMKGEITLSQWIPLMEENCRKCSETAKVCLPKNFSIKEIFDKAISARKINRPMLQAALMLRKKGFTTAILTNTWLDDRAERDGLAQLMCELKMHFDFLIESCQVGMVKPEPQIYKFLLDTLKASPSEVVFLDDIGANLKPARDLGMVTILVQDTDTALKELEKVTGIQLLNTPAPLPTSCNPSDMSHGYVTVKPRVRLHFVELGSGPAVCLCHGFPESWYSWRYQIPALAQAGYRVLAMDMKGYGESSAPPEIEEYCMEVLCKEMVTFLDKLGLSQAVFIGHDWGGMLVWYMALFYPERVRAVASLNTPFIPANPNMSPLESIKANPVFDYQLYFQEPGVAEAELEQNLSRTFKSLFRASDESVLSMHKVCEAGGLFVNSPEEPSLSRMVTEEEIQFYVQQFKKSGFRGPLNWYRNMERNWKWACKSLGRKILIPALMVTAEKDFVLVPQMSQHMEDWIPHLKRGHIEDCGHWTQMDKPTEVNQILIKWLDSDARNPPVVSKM

[2] = target: Amine oxidase [flavin-containing] A (MAO-A) (Homo sapiens, UniProt P21397); experiment: MAOA Eurofins-Panlabs selectivity data (BI); set-up: mode of action inhibitor; settings: compound concentration 10 uM, read-out: % Ctrl
[3] = target: T2, Thromboxane-A synthase (Homo sapiens) (UniProt P24557); experiment: THRO SYN(HU) Eurofins-Panlabs selectivity data (BI)
T2 sequence (whole entry): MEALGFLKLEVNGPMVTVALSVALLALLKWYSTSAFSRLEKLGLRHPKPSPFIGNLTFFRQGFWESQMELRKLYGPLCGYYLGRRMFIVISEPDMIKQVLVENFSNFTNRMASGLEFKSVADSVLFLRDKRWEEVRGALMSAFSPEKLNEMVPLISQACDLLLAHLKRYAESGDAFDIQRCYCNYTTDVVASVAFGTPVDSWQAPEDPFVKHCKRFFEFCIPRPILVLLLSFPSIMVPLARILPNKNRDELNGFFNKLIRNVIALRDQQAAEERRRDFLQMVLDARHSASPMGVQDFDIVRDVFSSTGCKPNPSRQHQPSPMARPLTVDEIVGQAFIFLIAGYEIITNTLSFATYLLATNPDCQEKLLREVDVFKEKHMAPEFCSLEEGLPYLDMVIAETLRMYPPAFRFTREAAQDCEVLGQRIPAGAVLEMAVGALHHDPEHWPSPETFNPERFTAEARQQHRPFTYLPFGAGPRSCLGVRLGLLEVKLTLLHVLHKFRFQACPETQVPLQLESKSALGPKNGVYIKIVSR

[4] = target: Vasopressin V1a receptor (Homo sapiens) (UniProt P37288); experiment: V1A/HU Eurofins-Panlabs selectivity data (BI); settings: Compound concentration 10.0 uM
[5] = target: Myotonin-protein kinase (Homo sapiens) (UniProt Q09013); settings: Compound concentration 1000.0 nM
[6] = target: Eukaryotic translation initiation factor 2-alpha kinase 1 (Homo sapiens) (UniProt Q9BQI3); settings: Compound concentration 1000.0 nM
[7] = target: Ephrin type-A receptor 6 (Homo sapiens) (UniProt Q9UF33); settings: Compound concentration 1000.0 nM
[8] = target: Ephrin type-B receptor 1 (Homo sapiens) (UniProt P54762); settings: Compound concentration 1000.0 nM
[9] = target: Receptor tyrosine-protein kinase erbB-3 (Homo sapiens) (UniProt P21860); settings: Compound concentration 1000.0 nM
[10] = target: Fibroblast growth factor receptor 2 (Homo sapiens) (UniProt P21802); settings: Compound concentration 1000.0 nM
[11] = test system: Fibroblast growth factor receptor 3 (Homo sapiens), P22607 [G697C]; settings: Compound concentration 1000.0 nM
[12] = target: Interleukin-1 receptor-associated kinase 3 (Homo sapiens) (UniProt Q9Y616); settings: Compound concentration 1000.0 nM
[13] = target: Tyrosine-protein kinase JAK1 (Homo sapiens) (UniProt P23458); settings: Compound concentration 1000.0 nM
[14] = target: Tyrosine-protein kinase JAK2 (Homo sapiens) (UniProt O60674); settings: Compound concentration 1000.0 nM
[15] = target: Serine/threonine-protein kinase STK11 (Homo sapiens) (UniProt Q15831); settings: Compound concentration 1000.0 nM
[16] = target: MAP kinase-activated protein kinase 2 (Homo sapiens) (UniProt P49137); settings: Compound concentration 1000.0 nM
[17] = test system: Hepatocyte growth factor receptor (Homo sapiens), P08581 [Y1235D]; settings: Compound concentration 1000.0 nM
[18] = target: Myosin-IIIa (Homo sapiens) (UniProt Q8NEV4); settings: Compound concentration 1000.0 nM
[19] = target: Serine/threonine-protein kinase Nek2 (Homo sapiens) (UniProt P51955); settings: Compound concentration 1000.0 nM
[20] = test system: Phosphatidylinositol 4,5-bisphosphate 3-kinase catalytic subunit alpha isoform (Homo sapiens), P42336 [I800L]; settings: Compound concentration 1000.0 nM
[21] = target: Protein kinase C delta type (Homo sapiens) (UniProt Q05655); settings: Compound concentration 1000.0 nM
[22] = target: Ribosomal protein S6 kinase alpha-5 (Homo sapiens) (UniProt O75582); settings: Compound concentration 1000.0 nM
[23] = target: SRSF protein kinase 1 (Homo sapiens) (UniProt Q96SB4); settings: Compound concentration 1000.0 nM
[24] = target: Serine/threonine-protein kinase TAO2 (Homo sapiens) (UniProt Q9UL54); settings: Compound concentration 1000.0 nM
[25] = target: Dual specificity protein kinase TTK (Homo sapiens) (UniProt P33981); settings: Compound concentration 1000.0 nM
[26] = target: D(2) dopamine receptor (Homo sapiens) (UniProt P14416); settings: Compound concentration 10.0 uM
[27] = target: Muscarinic acetylcholine receptor M2 (Homo sapiens) (UniProt P08172); settings: Compound concentration 10.0 uM
[28] = target: GABA-A receptor; anion channel (Rattus norvegicus) (UniProt O09028+P15431+P18506+P18508+P19969+P20236+P23574+P23576+P28471+P28473+P30191+P62813+P63079+P63138+Q91ZM7+Q9ES14); settings: Compound concentration 10.0 uM

Interleukin-1 receptor-associated kinase 3 (Homo sapiens), sequence (Q9Y616 whole entry): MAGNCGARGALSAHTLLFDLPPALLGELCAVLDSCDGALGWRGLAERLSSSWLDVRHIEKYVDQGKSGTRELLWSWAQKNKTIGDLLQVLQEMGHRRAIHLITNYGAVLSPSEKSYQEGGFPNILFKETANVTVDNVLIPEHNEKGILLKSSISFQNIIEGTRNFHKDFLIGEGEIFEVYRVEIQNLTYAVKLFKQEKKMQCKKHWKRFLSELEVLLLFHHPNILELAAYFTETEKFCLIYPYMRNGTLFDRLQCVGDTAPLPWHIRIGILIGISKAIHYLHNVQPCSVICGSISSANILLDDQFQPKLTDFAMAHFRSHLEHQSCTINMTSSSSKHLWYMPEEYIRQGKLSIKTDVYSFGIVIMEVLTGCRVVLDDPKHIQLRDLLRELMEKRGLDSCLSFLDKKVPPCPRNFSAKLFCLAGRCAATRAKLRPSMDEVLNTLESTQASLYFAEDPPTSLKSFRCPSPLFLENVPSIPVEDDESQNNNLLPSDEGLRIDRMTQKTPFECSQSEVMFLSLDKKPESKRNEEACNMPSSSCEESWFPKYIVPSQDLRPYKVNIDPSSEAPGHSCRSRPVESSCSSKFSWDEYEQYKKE
Serine/threonine-protein kinase Nek2 (Homo sapiens), sequence (P51955 whole entry, canonical isoform): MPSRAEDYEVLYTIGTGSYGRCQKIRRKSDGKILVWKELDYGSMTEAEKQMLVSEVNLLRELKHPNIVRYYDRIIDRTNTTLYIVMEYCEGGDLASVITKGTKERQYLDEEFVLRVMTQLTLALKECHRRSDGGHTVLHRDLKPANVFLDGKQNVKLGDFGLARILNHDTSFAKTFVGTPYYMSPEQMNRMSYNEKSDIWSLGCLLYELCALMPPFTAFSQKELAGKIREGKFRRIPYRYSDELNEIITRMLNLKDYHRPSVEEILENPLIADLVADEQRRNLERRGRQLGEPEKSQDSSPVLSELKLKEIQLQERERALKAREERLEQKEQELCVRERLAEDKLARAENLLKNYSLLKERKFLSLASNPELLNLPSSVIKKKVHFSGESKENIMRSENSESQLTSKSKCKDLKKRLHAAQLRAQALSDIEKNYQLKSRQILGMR
MAP kinase-activated protein kinase 2 (Homo sapiens), sequence (P49137 whole entry, looked up): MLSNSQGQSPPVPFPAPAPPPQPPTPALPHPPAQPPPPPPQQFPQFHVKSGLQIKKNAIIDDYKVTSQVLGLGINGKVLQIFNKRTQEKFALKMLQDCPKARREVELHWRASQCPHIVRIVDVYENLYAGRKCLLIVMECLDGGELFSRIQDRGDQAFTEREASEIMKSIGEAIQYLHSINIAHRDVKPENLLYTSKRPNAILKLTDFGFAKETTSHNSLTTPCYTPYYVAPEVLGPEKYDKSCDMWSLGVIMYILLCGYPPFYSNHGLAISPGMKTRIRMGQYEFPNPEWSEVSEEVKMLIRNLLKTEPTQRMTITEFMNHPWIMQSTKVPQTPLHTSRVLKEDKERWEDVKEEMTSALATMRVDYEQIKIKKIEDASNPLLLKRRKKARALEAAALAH
Eukaryotic translation initiation factor 2-alpha kinase 1 (Homo sapiens), sequence (Q9BQI3 whole entry): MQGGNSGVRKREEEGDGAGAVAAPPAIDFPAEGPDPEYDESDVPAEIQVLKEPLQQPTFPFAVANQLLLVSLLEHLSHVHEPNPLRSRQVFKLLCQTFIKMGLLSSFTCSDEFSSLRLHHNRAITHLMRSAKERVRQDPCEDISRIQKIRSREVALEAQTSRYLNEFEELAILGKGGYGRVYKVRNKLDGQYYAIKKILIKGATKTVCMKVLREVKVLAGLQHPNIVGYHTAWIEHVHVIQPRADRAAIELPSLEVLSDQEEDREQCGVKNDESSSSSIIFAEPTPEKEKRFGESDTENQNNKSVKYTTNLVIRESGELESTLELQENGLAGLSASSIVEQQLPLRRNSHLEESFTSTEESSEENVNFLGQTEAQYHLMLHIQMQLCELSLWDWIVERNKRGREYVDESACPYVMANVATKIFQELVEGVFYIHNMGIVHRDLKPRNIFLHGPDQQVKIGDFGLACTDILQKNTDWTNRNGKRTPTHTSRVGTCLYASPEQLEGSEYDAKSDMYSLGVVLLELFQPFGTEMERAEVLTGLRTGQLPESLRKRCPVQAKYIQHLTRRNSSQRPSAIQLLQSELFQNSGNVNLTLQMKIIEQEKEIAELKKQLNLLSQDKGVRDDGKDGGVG
Ephrin type-B receptor 1 (Homo sapiens), sequence (P54762 whole entry): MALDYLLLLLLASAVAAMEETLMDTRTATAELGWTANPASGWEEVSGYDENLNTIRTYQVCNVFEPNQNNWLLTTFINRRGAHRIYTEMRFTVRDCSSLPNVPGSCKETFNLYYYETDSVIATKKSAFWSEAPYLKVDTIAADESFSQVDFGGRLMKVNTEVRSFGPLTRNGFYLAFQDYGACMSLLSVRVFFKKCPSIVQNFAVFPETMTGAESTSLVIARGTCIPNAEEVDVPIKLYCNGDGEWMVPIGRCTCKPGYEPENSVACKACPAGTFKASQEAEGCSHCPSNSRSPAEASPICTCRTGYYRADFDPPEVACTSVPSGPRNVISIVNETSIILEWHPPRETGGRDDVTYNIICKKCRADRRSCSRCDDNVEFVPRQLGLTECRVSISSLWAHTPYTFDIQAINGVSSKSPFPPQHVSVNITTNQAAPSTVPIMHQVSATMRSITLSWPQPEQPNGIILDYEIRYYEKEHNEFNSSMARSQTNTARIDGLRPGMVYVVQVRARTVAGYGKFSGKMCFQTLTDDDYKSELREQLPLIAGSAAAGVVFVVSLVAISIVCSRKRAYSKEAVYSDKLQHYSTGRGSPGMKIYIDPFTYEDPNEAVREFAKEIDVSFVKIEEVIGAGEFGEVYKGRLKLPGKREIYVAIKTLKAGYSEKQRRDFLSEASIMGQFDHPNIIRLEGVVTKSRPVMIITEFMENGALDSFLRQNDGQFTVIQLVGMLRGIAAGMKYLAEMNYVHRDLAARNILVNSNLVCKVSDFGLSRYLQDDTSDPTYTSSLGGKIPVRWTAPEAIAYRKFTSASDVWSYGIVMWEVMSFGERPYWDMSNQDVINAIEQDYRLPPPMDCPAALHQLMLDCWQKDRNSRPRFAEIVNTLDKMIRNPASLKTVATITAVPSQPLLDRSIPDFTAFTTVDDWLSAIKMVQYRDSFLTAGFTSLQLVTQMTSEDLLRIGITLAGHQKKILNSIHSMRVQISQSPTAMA
Fibroblast growth factor receptor 2 (Homo sapiens), sequence (P21802 22-821 limits assumed): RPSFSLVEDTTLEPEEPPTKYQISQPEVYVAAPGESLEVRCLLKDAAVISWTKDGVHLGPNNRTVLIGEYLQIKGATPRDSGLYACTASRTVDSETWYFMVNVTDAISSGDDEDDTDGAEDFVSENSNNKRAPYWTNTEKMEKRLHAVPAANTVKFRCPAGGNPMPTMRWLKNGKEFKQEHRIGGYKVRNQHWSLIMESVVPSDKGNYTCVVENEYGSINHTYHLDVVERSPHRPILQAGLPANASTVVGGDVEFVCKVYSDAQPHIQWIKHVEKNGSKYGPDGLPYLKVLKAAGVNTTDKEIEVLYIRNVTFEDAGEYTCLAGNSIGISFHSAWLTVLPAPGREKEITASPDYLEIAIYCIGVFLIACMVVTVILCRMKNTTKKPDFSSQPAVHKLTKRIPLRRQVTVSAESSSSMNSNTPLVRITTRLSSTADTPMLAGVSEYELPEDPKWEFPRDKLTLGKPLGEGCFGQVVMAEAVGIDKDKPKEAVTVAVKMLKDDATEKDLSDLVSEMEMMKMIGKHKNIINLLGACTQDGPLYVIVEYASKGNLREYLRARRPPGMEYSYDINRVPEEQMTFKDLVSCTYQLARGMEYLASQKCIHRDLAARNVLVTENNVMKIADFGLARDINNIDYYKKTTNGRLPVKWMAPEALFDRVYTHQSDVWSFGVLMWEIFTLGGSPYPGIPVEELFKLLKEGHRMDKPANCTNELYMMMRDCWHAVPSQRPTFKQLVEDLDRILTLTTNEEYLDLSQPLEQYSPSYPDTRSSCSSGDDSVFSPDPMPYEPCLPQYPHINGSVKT
Myotonin-protein kinase (Homo sapiens), sequence (Q09013 whole entry): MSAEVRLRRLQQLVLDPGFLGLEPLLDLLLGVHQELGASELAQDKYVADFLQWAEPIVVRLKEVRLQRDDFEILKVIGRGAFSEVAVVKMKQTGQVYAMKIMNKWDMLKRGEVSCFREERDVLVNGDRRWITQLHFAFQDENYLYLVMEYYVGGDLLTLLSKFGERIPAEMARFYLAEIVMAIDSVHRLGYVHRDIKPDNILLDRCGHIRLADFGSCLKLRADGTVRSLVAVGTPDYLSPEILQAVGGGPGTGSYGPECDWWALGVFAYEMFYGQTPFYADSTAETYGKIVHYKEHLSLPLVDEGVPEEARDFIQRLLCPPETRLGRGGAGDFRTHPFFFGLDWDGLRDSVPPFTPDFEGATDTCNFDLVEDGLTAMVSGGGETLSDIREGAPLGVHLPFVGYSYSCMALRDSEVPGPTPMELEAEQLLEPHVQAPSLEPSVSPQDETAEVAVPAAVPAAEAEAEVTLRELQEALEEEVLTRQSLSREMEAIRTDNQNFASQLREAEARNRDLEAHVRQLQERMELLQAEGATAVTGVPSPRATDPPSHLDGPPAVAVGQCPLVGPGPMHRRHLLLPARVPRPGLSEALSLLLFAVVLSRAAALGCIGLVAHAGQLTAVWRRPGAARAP
Amine oxidase [flavin-containing] A (MAO-A), sequence (P21397 whole entry): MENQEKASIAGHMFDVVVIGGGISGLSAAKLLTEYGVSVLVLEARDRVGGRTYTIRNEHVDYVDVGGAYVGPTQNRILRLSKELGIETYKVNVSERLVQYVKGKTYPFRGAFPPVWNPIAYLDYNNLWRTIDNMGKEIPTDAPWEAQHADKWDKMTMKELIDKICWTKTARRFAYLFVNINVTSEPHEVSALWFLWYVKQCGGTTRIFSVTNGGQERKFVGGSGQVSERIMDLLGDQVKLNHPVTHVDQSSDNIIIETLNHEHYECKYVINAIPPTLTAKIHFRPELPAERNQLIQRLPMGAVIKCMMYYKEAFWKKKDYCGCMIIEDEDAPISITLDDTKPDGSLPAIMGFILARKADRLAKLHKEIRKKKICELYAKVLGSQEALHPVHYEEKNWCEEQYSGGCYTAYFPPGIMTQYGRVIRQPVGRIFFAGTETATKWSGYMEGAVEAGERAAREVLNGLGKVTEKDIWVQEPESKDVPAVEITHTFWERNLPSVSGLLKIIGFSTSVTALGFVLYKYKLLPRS

## CCOCCn1cc(C(=O)Nc2ccc(-n3nc(-c4cccnc4)cc3C(F)(F)F)cn2)ccc1=O [BI 1935]
[1]
  IC50: 7 nM (active)
[2]
  activity at 10 µM: 27%
[3]; Compound concentration 0.03 uM
  residual activity: 86%
[3]; Compound concentration 0.1 uM
  residual activity: 57%
[3]; Compound concentration 0.3 uM
  residual activity: 27%
[3]; Compound concentration 1.0 uM
  residual activity: 13%
[3]; Compound concentration 3.0 uM
  residual activity: 2%
[3]; Compound concentration 10.0 uM
  residual activity: 4%
[4]
  residual activity: 98%
[5]
  residual activity: 100%
[6]
  residual activity: 84%
[7]
  residual activity: 93%
[8]
  residual activity: 100%
[9]
  residual activity: 87%
[10]
  residual activity: 49%
[11]
  residual activity: 100%
[12]
  residual activity: 100%
[13]
  residual activity: 100%
[14]
  residual activity: 91%
[15]
  residual activity: 89%
[16]
  residual activity: 100%
[17]
  residual activity: 100%
[18]
  residual activity: 100%
[19]
  residual activity: 100%
[20]
  residual activity: 71%
[21]
  residual activity: 100%
[22]
  residual activity: 63%
[23]
  residual activity: 98%
[24]
  residual activity: 75%
[25]
  residual activity: 100%
[26]
  inhibition: -5.62%
[27]
  inhibition: -3%
[28]
  inhibition: 34.3%
